# Test results reported in PubChem BioAssay (NCI).
#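 A five-concentration, 48-hour dose response in 96-well plates underlies each endpoint, interpolated linearly between surrounding concentrations. GI50 is the concentration that inhibits growth by half. The concentration for full growth arrest is given as TGI.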
# How the values were obtained:
# Test in all cases: NCI tumour cell line growth inhibition, 48 h
# [1] = system: 786-0 renal
# [2] = system: A498 renal
# [3] = system: A549 NSCLC
# [4] = system: ACHN renal
# [5] = system: BT-549 breast
# [6] = system: CAKI-1 renal
# [7] = system: CCRF-CEM leukemia
# [8] = system: COLO 205 colon
# [9] = system: EKVX NSCLC
# [10] = system: HCC-2998 colon
# [11] = system: HCT-15 colon
# [12] = system: HOP-62 NSCLC
# [13] = system: HOP-92 NSCLC
# [14] = system: HS 578T breast
# [15] = system: IGROV1 ovarian
# [16] = system: K-562 leukemia
# [17] = system: KM12 colon
# [18] = system: LOX IMVI melanoma
# [19] = system: MALME-3M melanoma
# [20] = system: MCF7 breast
# [21] = system: MDA-MB-231 breast
# [22] = system: MDA-MB-435
# [23] = system: MDA-MB-468 breast
# [24] = system: NCI-H226 lung
# [25] = system: NCI-H23 lung
# [26] = system: NCI-H460 lung
# [27] = system: NCI-H522 lung
# [28] = system: NCI/ADR-RES ovarian
# [29] = system: OVCAR-3 ovarian
# [30] = system: OVCAR-4 ovarian
# [31] = system: OVCAR-5 ovarian
# [32] = system: OVCAR-8 ovarian
# [33] = system: RPMI-8226 leukemia
# [34] = system: RXF 393 renal
# [35] = system: SF-268 CNS
# [36] = system: SF-295 CNS
# [37] = system: SF-539 CNS
# [38] = system: SK-MEL-2 melanoma
# [39] = system: SK-MEL-28 melanoma
# [40] = system: SK-MEL-5 melanoma
# [41] = system: SK-OV-3 ovarian
# [42] = system: SN12C renal
# [43] = system: SNB-19 CNS
# [44] = system: SNB-75 CNS
# [45] = system: SW-620 colon
# [46] = system: T-47D breast
# [47] = system: TK-10 renal
# [48] = system: U251 CNS
# [49] = system: UACC-62 melanoma
# [50] = system: UO-31 renal
smiles,measurement,setting,value
Cc1ccc(/C(CSc2nnc(-c3c[nH]c4ccccc34)n2-c2ccccc2)=N/O)cc1,GI50,[1],10 µM
same,TGI,[1],31.4 µM
same,GI50,[2],24.8 µM
same,TGI,[2],89.1 µM
same,GI50,[3],3.55 µM
same,TGI,[3],69.7 µM
same,GI50,[4],1.79 µM
same,TGI,[4],3.35 µM
same,GI50,[5],1.59 µM
same,TGI,[5],3.03 µM
same,GI50,[6],1.63 µM
same,TGI,[6],3.06 µM
same,GI50,[7],2.14 µM
same,TGI,[7],4.98 µM
same,GI50,[8],3.77 µM
same,TGI,[8],37.4 µM
same,GI50,[9],2.15 µM
same,TGI,[9],5.58 µM
same,GI50,[10],2.09 µM
same,TGI,[10],3.93 µM
same,GI50,[11],1.75 µM
same,TGI,[11],3.34 µM
same,GI50,[12],1.69 µM
same,TGI,[12],3.42 µM
same,GI50,[13],11.9 µM
same,TGI,[13],37.4 µM
same,GI50,[14],2.07 µM
same,TGI,[14],4.82 µM
same,GI50,[15],2.09 µM
same,TGI,[15],4.35 µM
same,GI50,[16],2.01 µM
same,TGI,[16],4.97 µM
same,GI50,[17],8.65 µM
same,TGI,[17],> 100 µM
same,GI50,[18],1.75 µM
same,TGI,[18],3.17 µM
same,GI50,[19],2.26 µM
same,TGI,[19],5.57 µM
same,GI50,[20],2.42 µM
same,TGI,[20],7.01 µM
same,GI50,[21],1.77 µM
same,TGI,[21],3.33 µM
same,GI50,[22],1.63 µM
same,TGI,[22],3.05 µM
same,GI50,[23],1.5 µM
same,TGI,[23],2.91 µM
same,GI50,[24],1.63 µM
same,TGI,[24],3.36 µM
same,GI50,[25],10.1 µM
same,TGI,[25],52.2 µM
same,GI50,[26],3.18 µM
same,TGI,[26],12.2 µM
same,GI50,[27],2.24 µM
same,TGI,[27],6.04 µM
same,GI50,[28],2 µM
same,TGI,[28],3.9 µM
same,GI50,[29],4.26 µM
same,TGI,[29],25.5 µM
same,GI50,[30],1.75 µM
same,TGI,[30],3.51 µM
same,GI50,[31],1.69 µM
same,TGI,[31],3.11 µM
same,GI50,[32],2.19 µM
same,TGI,[32],4.89 µM
same,GI50,[33],2.05 µM
same,TGI,[33],4.81 µM
same,GI50,[34],1.85 µM
same,TGI,[34],3.76 µM
same,GI50,[35],1.99 µM
same,TGI,[35],4.66 µM
same,GI50,[36],1.64 µM
same,TGI,[36],3.18 µM
same,GI50,[37],2.06 µM
same,TGI,[37],4.41 µM
same,GI50,[38],2.88 µM
same,TGI,[38],8.96 µM
same,GI50,[39],5.67 µM
same,TGI,[39],38.7 µM
same,GI50,[40],4.76 µM
same,TGI,[40],48.1 µM
same,GI50,[41],1.68 µM
same,TGI,[41],3.64 µM
same,GI50,[42],2.33 µM
same,TGI,[42],6.8 µM
same,GI50,[43],1.87 µM
same,TGI,[43],3.97 µM
same,GI50,[44],1.4 µM
same,TGI,[44],2.77 µM
same,GI50,[45],1.79 µM
same,TGI,[45],3.55 µM
same,GI50,[46],2.07 µM
same,TGI,[46],4.75 µM
same,GI50,[47],1.9 µM
same,TGI,[47],3.87 µM
same,GI50,[48],8.22 µM
same,TGI,[48],> 100 µM
same,GI50,[49],1.69 µM
same,TGI,[49],3.26 µM
same,GI50,[50],1.82 µM
same,TGI,[50],4.15 µM
